In patent US7166738B2, “Non-nucleoside reverse transcriptase inhibitors” (Roche Palo Alto LLC, priority 2004, dated 2007):

SMILES | melting point [°C]
CN(C(=O)Cc1ccc(Cl)c(Oc2cc(Cl)cc(C#N)c2)c1F)c1ccccc1Cl [Compound I-111, 2-[4-Chloro-3-(3-chloro-5-cyano-phenoxy)-2-fluoro-phenyl]-N-(2-chloro-phenyl)-N-methyl-acetamide] | 134 to 137.1
Cc1cc(S(=O)(=O)N2CCSCC2)ccc1NC(=O)Cc1ccc(C)c(Oc2cc(Cl)cc(C#N)c2)c1 [Compound I-117, 2-[3-(3-Chloro-5-cyano-phenoxy)-4-methyl-phenyl]-N-[2-methyl-4-(thiomorpholine-4-sulfonyl)-phenyl]-acetamide] | 151.9 to 155.3
Cc1cc(S(=O)(=O)NCCN2CCOCC2)ccc1NC(=O)Cc1ccc(C)c(Oc2cc(Cl)cc(C#N)c2)c1 [Compound I-118, 2-[3-(3-Chloro-5-cyano-phenoxy)-4-methyl-phenyl]-N-[2-methyl-4-(2-morpholin-4-yl-ethylsulfamoyl)-phenyl]-acetamide] | 177 to 181
Cc1cc(S(=O)(=O)NC2CCC(O)CC2)ccc1NC(=O)Cc1ccc(C)c(Oc2cc(Cl)cc(C#N)c2)c1 (centres unmarked) [Compound I-121, 2-[3-(3-Chloro-5-cyano-phenoxy)-4-methyl-phenyl]-N-[4-(4-hydroxy-cyclohexylsulfamoyl)-2-methyl-phenyl]-acetamide] | 195.1 to 197.7
Cc1cc(S(=O)(=O)CCC(=O)O)ccc1NC(=O)Cc1ccc(C)c(Oc2cc(Cl)cc(C#N)c2)c1 [Compound I-125, 3-(4-{2-[3-(3-Chloro-5-cyano-phenoxy)-4-methyl-phenyl]-acetylamino}-3-methyl-benzenesulfonyl)-propionic acid] | 74.3 to 76.5
Cc1cc(S(=O)(=O)NC2CCOCC2)ccc1NC(=O)Cc1ccc(C)c(Oc2cc(Cl)cc(C#N)c2)c1 [Compound I-128, 2-[3-(3-Chloro-5-cyano-phenoxy)-4-methyl-phenyl]-N-[2-methyl-4-(tetrahydro-pyran-4-ylsulfamoyl)-phenyl]-acetamide] | 171.7 to 172.6
Cc1cc(S(=O)(=O)NCC(C)O)ccc1NC(=O)Cc1ccc(C)c(Oc2cc(Cl)cc(C#N)c2)c1 (centres unmarked) [Compound I-129, 2-[3-(3-Chloro-5-cyano-phenoxy)-4-methyl-phenyl]-N-[4-(2-hydroxy-propylsulfamoyl)-2-methyl-phenyl]-acetamide] | 172.2 to 173.4
CSCCNS(=O)(=O)c1ccc(NC(=O)Cc2ccc(C)c(Oc3cc(Cl)cc(C#N)c3)c2)c(C)c1 [Compound I-130, 2-[3-(3-Chloro-5-cyano-phenoxy)-4-methyl-phenyl]-N-[2-methyl-4-(2-methylsulfanyl-ethylsulfamoyl)-phenyl]-acetamide] | 155.6 to 156.6
CSCCCNS(=O)(=O)c1ccc(NC(=O)Cc2ccc(C)c(Oc3cc(Cl)cc(C#N)c3)c2)c(C)c1 [Compound I-131, 2-[3-(3-Chloro-5-cyano-phenoxy)-4-methyl-phenyl]-N-[2-methyl-4-(3-methylsulfanyl-propylsulfamoyl)-phenyl]-acetamide] | 159.9 to 162.8
COc1cc(CC(=O)Nc2ccc(S(N)(=O)=O)cc2)cc(Oc2cc(Cl)cc(C#N)c2)c1 [Compound I-132, 2-[3-(3-Chloro-5-cyano-phenoxy)-5-methoxy-phenyl]-N-(4-sulfamoyl-phenyl)-acetamide] | 184.1 to 185.5
COc1cc(CC(=O)Nc2ccc(S(N)(=O)=O)cc2Cl)cc(Oc2cc(Cl)cc(C#N)c2)c1 [Compound I-136, 2-[3-(3-Chloro-5-cyano-phenoxy)-5-methoxy-phenyl]-N-(2-chloro-4-sulfamoyl-phenyl)-acetamide] | 159 to 161.1
Cc1cc(S(=O)(=O)CCC#N)ccc1NC(=O)Cc1ccc(C)c(Oc2cc(Cl)cc(C#N)c2)c1 [Compound I-137, 2-[3-(3-Chloro-5-cyano-phenoxy)-4-methyl-phenyl]-N-[4-(2-cyano-ethanesulfonyl)-2-methyl-phenyl]-acetamide] | 186.1 to 188
Cc1cc(CC(=O)Nc2ccc(S(N)(=O)=O)cc2)cc(Oc2cc(Cl)cc(C#N)c2)c1 [Compound I-141, 2-[3-(3-Chloro-5-cyano-phenoxy)-5-methyl-phenyl]-N-(4-sulfamoyl-phenyl)-acetamide] | 183.9 to 185.2

The remaining lines, values ahead:

melting point [°C] | SMILES
204 to 207 | CCc1cc(CC(=O)Nc2ccc(S(N)(=O)=O)cc2Cl)cc(Oc2cc(C#N)ccc2Cl)c1 [Compound I-107, 2-[3-(2-Chloro-5-cyano-phenoxy)-5-ethyl-phenyl]-N-(2-chloro-4-sulfamoyl-phenyl)-acetamide]
204.4 to 207.3 | CNS(=O)(=O)c1ccc(NC(=O)Cc2ccc(Cl)c(Oc3cc(Cl)cc(C#N)c3)c2F)c(C)c1 [Compound I-108, 2-[4-Chloro-3-(3-chloro-5-cyano-phenoxy)-2-fluoro-phenyl]-N-(2-methyl-4-methylsulfamoyl-phenyl)-acetamide]
179.9 to 182 | Cc1ccc(CC(=O)Nc2ccc(S(C)(=O)=O)cc2Cl)c(F)c1Oc1cc(C#N)cc(C(F)F)c1 [Compound I-112, N-(2-Chloro-4-methanesulfonyl-phenyl)-2-[3-(3-cyano-5-difluoromethyl-phenoxy)-2-fluoro-4-methyl-phenyl]-acetamide]
144 to 147 | N#Cc1cc(Oc2c(F)c(CC(=O)Nc3ccc(S(N)(=O)=O)cc3)cc(Br)c2Br)cc(C(F)F)c1 [Compound I-114, 2-[4,5-Dibromo-3-(3-cyano-5-difluoromethyl-phenoxy)-2-fluoro-phenyl]-N-(4-sulfamoyl-phenyl)-acetamide]
212 to 216.1 | Cc1cc(S(N)(=O)=O)ccc1NC(=O)Cc1ccc(Cl)c(Oc2cc(C#N)cc(C(F)(F)F)c2)c1F [Compound I-120, 2-[4-Chloro-3-(3-cyano-5-trifluoromethyl-phenoxy)-2-fluoro-phenyl]-N-(2-methyl-4-sulfamoyl-phenyl)-acetamide]
192.8 to 194.1 | Cc1cc(S(N)(=O)=O)ccc1NC(=O)Cc1ccc(C)c(Oc2cc(Cl)cc(C#N)c2)c1 [Compound I-122, 2-[3-(3-Chloro-5-cyano-phenoxy)-4-methyl-phenyl]-N-(2-methyl-4-sulfamoyl-phenyl)-acetamide]
194 to 194.9 | Cc1ccc(CC(=O)Nc2ccc(S(N)(=O)=O)cc2Cl)cc1Oc1cc(Cl)cc(C#N)c1 [Compound I-123, 2-[3-(3-Chloro-5-cyano-phenoxy)-4-methyl-phenyl]-N-(2-chloro-4-sulfamoyl-phenyl)-acetamide]
230.1 to 230.7 | Cc1cc(C#N)cc(Oc2c(Cl)ccc(CC(=O)Nc3ccc(S(N)(=O)=O)cc3C)c2F)n1 [Compound I-124, 2-[4-Chloro-3-(4-cyano-6-methyl-pyridin-2-yloxy)-2-fluoro-phenyl]-N-(2-methyl-4-sulfamoyl-phenyl)-acetamide]
169.9 to 171.1 | COc1cc(CC(=O)Nc2ccc(S(N)(=O)=O)cc2C)cc(Oc2cc(Cl)cc(C#N)c2)c1 [Compound I-133, 2-[3-(3-Chloro-5-cyano-phenoxy)-5-methoxy-phenyl]-N-(2-methyl-4-sulfamoyl-phenyl)-acetamide]
186.9 to 187.6 | CCCC(=O)N(C)S(=O)(=O)c1ccc(NC(=O)Cc2ccc(Cl)c(Oc3cc(Cl)cc(C#N)c3)c2F)c(Cl)c1 [Compound I-139, N-[4-(Butyryl-methyl-sulfamoyl)-2-chloro-phenyl]-2-[4-chloro-3-(3-chloro-5-cyano-phenoxy)-2-fluoro-phenyl]-acetamide]
